Data: patent EP0678295B1, “Manufacturing process of phospholipideactive principle complexes useful for the liposome preparation” (Citernesi, Ugo, priority 1994, dated 1995)

Test: Measurement of entrapment efficiency (ultracentrifugation of liposomes, HPLC determination of Vitamin A in both phases)
Format: physicochemical
Conditions: liposomes from gelified phospholipid /Vitamin A complex (Example 1A) plus physiologic solution, 325 nm
Protocol: Measurement of entrapment efficiency.
A gelified phospholipid /Vitamin A complex was prepared according to the procedure described in Example 1A.
Liposomes were then obtained by adding a physiologic solution to the complex and subsequent stirring of the mixture.
The obtained liposomes have been subjected to ultracentrifugation in order to separate the liposome phase from the water phase. In both phases Vitamin A was determined as follows.
Phospholipid /vitamin A pellet resulting from the ultracentrifugation was dissolved in hexane, filtered under vacuum (0.2 .10^5 Pa) and determined by HPLC (high performance liquid chromatography) using two different HPLC columns: • 1) Column: Chromsep Nucleosil C18 100 mm x 3 ID Eluent: methanol Flow: 1 ml/min. Detecting wl: 325 nm • 2) Column: Pertsil 10 ODS Eluent: Methanol/water (90/10) Flow: 1ml/min. Detecting wl: 325 nm
The water phase coming from the ultracentrifugation was analyzed for its vitamin A content using the same HPLC procedure and columns.

- Vitamin A detected in the liposome phase (pellet after ultracentrifugation dissolved in hexane): almost all
- Vitamin A detected in the aqueous phase (water phase after ultracentrifugation): No Vitamin A was detected
SMILES: CC(=O)OC/C=C(C)/C=C/C=C(C)/C=C/C1=C(C)CCCC1(C)C [Vitamin A, Vitamin A acetate]
